We go through 48 molecules from patent publication US8476261B2, “Spirocyclic aminoquinolones as GSK-3 inhibitors” (Kyorin Pharmaceutical Co., Ltd., priority 2007, dated 2013).

One experiment deals with T1, recombinant full-length human GSK3β (Homo sapiens, UniProt P49841).
T1 construct: recombinant full-length human GSK3β (Upstate); purchased Upstate
T1 sequence (P49841 whole entry): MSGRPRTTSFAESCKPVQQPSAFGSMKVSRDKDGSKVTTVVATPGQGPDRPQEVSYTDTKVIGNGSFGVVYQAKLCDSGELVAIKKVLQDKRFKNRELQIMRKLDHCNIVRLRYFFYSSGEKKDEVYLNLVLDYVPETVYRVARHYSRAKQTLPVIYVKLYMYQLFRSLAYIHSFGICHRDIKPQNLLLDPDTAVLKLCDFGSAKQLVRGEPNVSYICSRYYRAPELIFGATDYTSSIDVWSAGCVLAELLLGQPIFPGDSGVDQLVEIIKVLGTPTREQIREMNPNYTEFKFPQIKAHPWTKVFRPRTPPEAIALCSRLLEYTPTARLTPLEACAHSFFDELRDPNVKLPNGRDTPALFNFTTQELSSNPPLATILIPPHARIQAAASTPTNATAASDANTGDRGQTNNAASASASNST
The experiment can be described thus: cell-free GSK3 kinase assay (KinaseGlo luciferase). As to conditions: Table 1; 5 μM ATP, 1 hour at 30 degrees Celsius. Type of experiment: biochemical. As to the method: Proceed to KinaseGlo luciferase reaction.
Following the completion of the kinase reaction an equal volume of KinaseGlo luciferase reagent (Promega) is added and the luminescence read using a luminescence plate reader within 5-10 minutes.
A general note: In Kinase-Glo more light means more ATP remaining.
What is called IC50 is the concentration at which inhibition is half-maximal. On to `Nc1c(F)c(NCCNc2ccccn2)c2c3c1c(=O)c(C(=O)O)cn3CC1(CCC1)CO2` [Compound 51], for which the 50% inhibitory concentration (IC50) lay within 61 to 150 nM.

For `Nc1c(F)c(NCCCn2cnc3ccccc32)c2c3c1c(=O)c(C(=O)O)cn3C1(CCCC1)CO2` [Compound 70], the IC50 is < 15 nM.

For `Nc1c(F)c(NCCCNC(=O)c2ccco2)c2c3c1c(=O)c(C(=O)O)cn3C1(CCCC1)CO2` [Compound 7], the IC50 lay within 16 to 60 nM.

With `Nc1c(F)c(N[C@H]2CC[C@H](c3ccccn3)C2)c2c3c1c(=O)c(C(=O)O)cn3C1(CCCC1)CO2` [Compound 78], the 50% inhibitory concentration (IC50) was < 15 nM.

`COc1ccc(CNc2c(F)c(N)c3c(=O)c(C(=O)O)cn4c3c2OCCC42CCC2)cc1` [Compound 55]: the IC50 was in the range of 61 to 150 nM.

As for `Nc1c(F)c(NCCOc2ccc(Cl)cc2Cl)c2c3c1c(=O)c(C(=O)O)cn3C1(CCCC1)CO2` [Compound 13], the IC50 fell in the range of 61 to 150 nM.

On to `Nc1c(F)c(NCCC(c2ccccc2)c2ccc3c(c2)OCO3)c2c3c1c(=O)c(C(=O)O)cn3C1(CCCC1)CO2` (stereo not drawn) [Compound 72], for which the IC50 is > 150 nM.

Take `Nc1c(F)c(NCCCc2ccccn2)c2c3c1c(=O)ccn3C1(CCC1)CCO2` [Compound 83]: the concentration for half-maximal inhibition (IC50) is 61 to 150 nM.

Consider `CCOc1ccc(CCCNc2c(F)c(N)c3c(=O)c(C(=O)O)cn4c3c2OCC42CCCC2)cc1OCC` [Compound 29], for which the IC50 was 16 to 60 nM.

As for `COc1cccc(CCCNc2c(F)c(N)c3c(=O)c(C(=O)O)cn4c3c2OCC42CCCC2)c1` [Compound 69], the IC50 was < 15 nM.

`Nc1c(F)c(NCCS(=O)(=O)N2CCCCC2)c2c3c1c(=O)c(C(=O)O)cn3C1(CCCC1)CO2` [Compound 19]: the IC50 lay within 61 to 150 nM.

Take `Nc1c(F)c(NCCCc2ccc(F)cc2)c2c3c1c(=O)c(C(=O)O)cn3C1(CCCC1)CO2` [Compound 4]: the IC50 is < 15 nM.

For `CC1CC2(CCC2)n2cc(C(=O)O)c(=O)c3c(N)c(F)c(NCCNc4ccccn4)c(c32)O1` (stereo not drawn) [Compound 50], the IC50 was > 150 nM.

Turning to `Nc1c(F)c(NCCCn2ccnc2)c2c3c1c(=O)c(C(=O)O)cn3C1(CCCC1)CO2` [Compound 96], the IC50 was < 15 nM.

Consider `Nc1c(F)c(NCCOc2ccc(Cl)cc2)c2c3c1c(=O)c(C(=O)O)cn3C1(CCCC1)CO2` [Compound 12], for which the IC50 fell in the range of 61 to 150 nM.

Turning to `NNC(=O)c1cn2c3c(c(NCCNc4ccccn4)c(F)c(N)c3c1=O)OCCC21CCC1` [Compound 88], the IC50 was < 15 nM.

In the case of `CNC(=O)c1cn2c3c(c(NCCNc4ccccn4)c(F)c(N)c3c1=O)OCCC21CCC1` [Compound 90], the half-maximal inhibitory concentration (IC50) is > 150 nM.

In the case of `Nc1c(F)c(NCCNc2ccccn2)c2c3c1c(=O)ccn3C1(CCC1)CCO2` [Compound 82], the IC50 lay within 16 to 60 nM.

Turning to `Nc1c(Cl)c(NCCNc2ccccn2)c2c3c1c(=O)c(C(=O)O)cn3C1(CCC1)CCO2` [Compound 95], the IC50 lay within 61 to 150 nM.

For `Nc1c(F)c(NCCCn2ccnc2)c2c3c1c(=O)ccn3C1(CCC1)CCO2` [Compound 84], the IC50 is < 15 nM.

Take `Nc1c(F)c(NC2CCN(c3ccccn3)C2)c2c3c1c(=O)c(C(=O)O)cn3C1(CCC1)CCO2` (stereo not drawn) [Compound 62]: the IC50 was > 150 nM.

Regarding `CCN(CCCNc1c(F)c(N)c2c(=O)c(C(=O)O)cn3c2c1OCCC31CCC1)c1ccccc1` [Compound 57], the IC50 was in the range of 16 to 60 nM.

`COc1ccc(C(CCNc2c(F)c(N)c3c(=O)c(C(=O)O)cn4c3c2OCC42CCCC2)c2ccc(F)cc2)cc1` (stereo not drawn) [Compound 39]: the IC50 was < 15 nM.

Consider `Nc1c(F)c(NCCCN2CCCc3ccccc32)c2c3c1c(=O)c(C(=O)O)cn3C1(CCCC1)CO2` [Compound 5], for which the 50% inhibitory concentration (IC50) was in the range of 16 to 60 nM.

Turning to `Nc1nc(NCCNc2c(F)c(N)c3c(=O)c(C(=O)O)cn4c3c2OCCC42CCC2)ccc1[N+](=O)[O-]` [Compound 61], the IC50 was 61 to 150 nM.

In the case of `N#Cc1cn2c3c(c(NCCCn4ccnc4)c(F)c(N)c3c1=O)OCC21CCCC1` [Compound 37], the IC50 was < 15 nM.

Regarding `COc1ccc(OCCNc2c(F)c(N)c3c(=O)c(C(=O)O)cn4c3c2OCC42CCCC2)cc1` [Compound 34], the IC50 lay in the range of 61 to 150 nM.

As to `Nc1c(F)c(NCCOc2ccc(F)cc2)c2c3c1c(=O)c(C(=O)O)cn3C1(CCCC1)CO2` [Compound 9], the IC50 was in the range of 16 to 60 nM.

On to `Nc1c(F)c(NCCNc2ccccn2)c2c3c1c(=O)c(C(=O)O)cn3CC1(CCC1)O2` [Compound 45], for which the IC50 fell in the range of 61 to 150 nM.

For `Nc1c(F)c(NCCCc2ccccc2Cl)c2c3c1c(=O)c(C(=O)O)cn3C1(CCCC1)CO2` [Compound 27], the IC50 was < 15 nM.

Take `Nc1c(F)c(NCCNc2ccccn2)c2c3c1c(=O)c(C(=O)NO)cn3C1(CCC1)CCO2` [Compound 89]: the IC50 is < 15 nM.

On to `Nc1c(F)c(NCCNc2ccccn2)c2c3c1c(=O)c(C(=O)O)cn3C1(CCCC1)CCO2` [Compound 48], for which the IC50 was > 150 nM.

On to `Nc1c(F)c(N[C@@H]2C[C@H]2Cc2ccccn2)c2c3c1c(=O)c(C(=O)O)cn3C1(CCCC1)CO2` [Compound 64], for which the IC50 was 16 to 60 nM.

Consider `Nc1c(F)c(NCCNc2ccccn2)c2c3c1c(=O)c(C(=O)O)cn3CC1(CC1)CO2` [Compound 52], for which the IC50 is > 150 nM.

For `Nc1c(F)c(NCCOc2ccc(C3CCCCC3)cc2)c2c3c1c(=O)c(C(=O)O)cn3C1(CCCC1)CO2` [Compound 17], the IC50 was > 150 nM.

On to `Nc1c(F)c(NCCSc2nc3ccccc3[nH]2)c2c3c1c(=O)c(C(=O)O)cn3C1(CCCC1)CO2` [Compound 76], for which the IC50 was > 150 nM.

In the case of `N#Cc1cn2c3c(c(NCCCc4ccccn4)c(F)c(N)c3c1=O)OCC21CCCC1` [Compound 36], the IC50 is < 15 nM.

For `CC(CCc1ccccc1Cl)Nc1c(F)c(N)c2c(=O)c(C(=O)O)cn3c2c1OCC31CCCC1` (stereo not drawn) [Compound 31], the IC50 lay within 16 to 60 nM.

As for `Nc1c(F)c(NCCNc2ccccn2)c2c3c1c(=O)c(C(=O)O)cn3C1(CCCC1)CO2` [Compound 1], the IC50 was < 15 nM.

Take `Nc1c(F)c(NCCCNC(=O)C23CC4CC(CC(C4)C2)C3)c2c3c1c(=O)c(C(=O)O)cn3C1(CCCC1)CO2` [Compound 8]: the IC50 is 16 to 60 nM.

On to `CCN(CCCNc1c(F)c(N)c2c(=O)c(C(=O)O)cn3c2c1OCC31CCCC1)c1ccccc1` [Compound 23], for which the IC50 was < 15 nM.

Regarding `COc1ccc(OCCNc2c(F)c(N)c3c(=O)c(C(=O)O)cn4c3c2OCC42CCCC2)cc1OC` [Compound 14], the IC50 was < 15 nM.

`Nc1c(F)c(NCCNc2ccccn2)c2c3c1c(=O)c(C(=O)O)cn3C1(CCC1)CCN2` [Compound 53]: the IC50 fell in the range of 16 to 60 nM.

`Nc1c(F)c(NCCCc2ccccn2)c2c3c1c(=O)c(C(=O)O)cn3C1(CCCC1)CO2` [Compound 26]: the 50% inhibitory concentration (IC50) is < 15 nM.

Turning to `Cc1cc(NCCNc2c(F)c(N)c3c(=O)c(C(=O)O)cn4c3c2OCC42CCCC2)c2ccccc2n1` [Compound 30], the IC50 is < 15 nM.

With `Nc1c(F)c(NCCNC(=O)c2ccccn2)c2c3c1c(=O)c(C(=O)O)cn3C1(CCCC1)CO2` [Compound 68], the IC50 was 16 to 60 nM.

For `Cn1ccnc1SCCNc1c(F)c(N)c2c(=O)c(C(=O)O)cn3c2c1OCC31CCCC1` [Compound 18], the IC50 was < 15 nM.

Staying with this experiment, now noted: Table 2; 5 μM ATP, 1 hour at 30 degrees Celsius.
Take `N#Cc1cn2c3c(c(NCCCn4cccn4)c(F)c(N)c3c1=O)OCC21CC1`: the IC50 was < 15 nM.
